One series has as its system CLN3^Δex7/8 neurons. Briefly: Intracellular relative ATP content (Cell Titer Glo). Format: cell-based, human. Conditions: same number of CLN3^Δex7/8 neurons. As to the method:
Neural stem cells or neurons were digested into single cells and were counted using a hemocytometer. The cell suspension was then diluted to the same cell concentration (10^5˜10^6/mL). 100 μL of cell suspension was taken out into a white 96-well analysis plate, and 100 μL of CellTiter-Lumi™ Steady Plus reagent that had been equilibrated to room temperature was added, shaken to mix, and incubated at room temperature for 15 minutes. The chemiluminescence intensity of the sample was then read using a multifunctional microplate reader to indicate the intracellular relative ATP content.
To test the effect of compound G on mitochondrial homeostasis in CLN3^Δex7/8 neurons, fluorescently labeled mitochondrial outer membrane protein OMP25-GFP was overexpressed in neurons, and the morphological changes of mitochondria were observed by laser confocal microscope. […] The amount of ATP generation in the same number of neurons was tested using Cell Titer Glo reagent.
For orientation: Cellular ATP, detected with luciferase, serves as a proxy for viable cell number.

Series [1] deals with Cln3 KO mice. Briefly: Morris water maze. Type of series: in vivo, mouse. To be noted: 7th day test. As to the method:
To test the difference in learning and memory abilities of Cln3 KO mice and wild-type mice, and the effect of Compound G on learning and memory abilities of Cln3 KO mice, a Morris water maze was performed, with specific procedures as follows: the mice to be tested were kept in single cages for more than 1 week to adapt to the environment; the maze used in this study was a circular pool with a diameter of 120 cm and a depth of 40 cm; the pool wall is divided into four quadrants including northeast (NE), northwest (NW), southwest (SW) and southeast (SE) with circles, squares, triangles and crosses respectively. The platform was placed at a fixed position in the SW quadrant with a diameter of 11 cm and a height of 18 cm; milky white water containing titanium dioxide was added to the pool, the amount of added water being just short of the platform is suitable; the water temperature was adjusted to about 22° C.; the mouse was gently put into the water from the designated position shown in Table 5, and the movement of the mouse within 60 seconds was recorded through the video equipment. If the mouse found the platform within 60 seconds, its time to find the platform was recorded; if the mouse could not find the platform within 60 seconds, it was guided to the platform and held for 15 seconds.
The mice were removed from the platform, wiped clean with a dry towel and returned to their cages. Each mouse was trained 4 times a day, with a 30-minute interval between each training, for a total of 6 days, and mice that cannot swim were excluded; on the Day 7, the platform in the water was taken out, and then the mice were gently put into the water from the NE direction, and the movement of the mouse within 60 seconds was recorded with a video equipment. The time it took for the mouse to find the platform for the first time and the time the mouse stayed in the SW quadrant were analyzed and counted using Noldus software. In addition, the experimenter manually counted the number of times the mouse crossed the location of the original platform within 60 seconds.
Starting from day 21 on which the Cln3 KO mice were weaned, treatment of Compound G was continuously provided. […]
First, the mice were trained in the water maze for 6 days, and the time it took for them to find the underwater platform was recorded. […] The time that the mice spent reaching the position of the original platform for the first time, the number of shuttles at the position of the original platform and the time stayed in the quadrant of the original platform were recorded, which characterized whether they have learned the position of the underwater platform through the first 6 days of training.

Series [2] relates to CLN3^Δex7/8 human neurons. Kind of series: qRT-PCR of autophagy-related and lysosomal genes in human neurons. Format: cell-based. To be noted: 6 hours. How it is done:
The cells in the cell-culture dish were collected, extracted using AxyPrep Total RNA Mini Prep Kit or Qiagen AxyPrep Total RNA Mini Prep Kit, and the extracted RNA concentration is measured using Nanodrop; the extracted mRNA was reverse transcribed into cDNA by Transgen's EasyScript® One-Step gDNA Removal and cDNA Synthesis SuperMix and the primers used for reverse transcription were Oligo dT primers; the completion of reverse transcription followed by qRT-PCR reaction through PerfectStart™ Green qPCR SuperMix to detect the expression of the target gene; the qRT-PCR reaction was performed on the Bio-Rad CFX96 Real-Time PCR system; see Table 2 and Table 3 for the 20 μL qRT-PCR reaction system and reaction procedures; data analysis was performed in Prism 7 software using the 2^−ΔΔCt process with GAPDH as internal reference for relative quantification of the expression of the target gene.
The effect of Compound G on the transcription level of the autophagy-related genes and the lysosomal genes was further detected in the induced CLN3^Δex7/8 human neural stem cells and neurons.

The test system of series [3] is Cln3 KO mice. Briefly: Body weight, brain tissue mass and toxicity in Cln3 KO mice.
Procedure: The control group was Cln3 KO mice whose drinking water contained an equal amount of solvent. Body weight changes were recorded during administration.
Starting from day 21 on which the mice were weaned, Compound G or the solvent was added to the drinking water of Cln3 KO mice, and the weight changes of the mice were recorded. […] When the mice reached six months of age, they were euthanized and the brain tissues were taken out and weighed.

As for `C/C=C1\C(=O)C[C@H]2[C@@H]3CCC4=CC(=O)CC[C@]4(C)[C@H]3CC[C@]12C` [Compound G, (Z)-guggulsterone], the “capacity of ATP generation” value with CLN3^Δex7/8 neurons is “significantly increased”. In the series with Cln3 KO mice [1], the “movement speed of the mice in water” value is recorded as “no significant effect”, the “number of times they shuttle at the position of the original platform” value is “closer to that of the wild-type mice”, the “time spent reaching the position of the original platform for the first time” value is on record as “effectively shorten” and the “time stayed in the quadrant of the original platform” value is recorded as “extended the time stayed in the quadrant of the original platform to a certain extent”. Also, the “expression of the autophagy-related genes or the lysosomal genes overall” value in series [2] is recorded as “did not significantly increase”. The “body weight of mice” value in the series on Cln3 KO mice [3] (2 or 6 months old, drinking water from day 21) is “no significant effect”. In addition, the “mass of the mice brain tissue” value in the series with Cln3 KO mice [3] (6 months of age) is “no significant effect”.

The values above are taken from patent US20250152605A1, “METHOD AND DRUG FOR TREATING NEURONAL CEROID LIPOFUSCINOSIS” (priority 2021, published 2025).
